Test results as given in ChEMBL document CHEMBL1221248, “Synthesis and SAR of (piperazin-1-yl-phenyl)-arylsulfonamides: a novel series of atypical antipsychotic agents” (Bioorg Med Chem Lett, 2010).
Activity calls are given as the source filed them. No cut-off for these calls is given here.

Tests used:
[1] = biological target: T1, 5-hydroxytryptamine receptor 2C (Homo sapiens, UniProt P28335); test: Displacement of [3H]mesulergine from human 5HT2C expressed in CHOKI cells; assay type: cell-based
T1 sequence (P28335 whole entry): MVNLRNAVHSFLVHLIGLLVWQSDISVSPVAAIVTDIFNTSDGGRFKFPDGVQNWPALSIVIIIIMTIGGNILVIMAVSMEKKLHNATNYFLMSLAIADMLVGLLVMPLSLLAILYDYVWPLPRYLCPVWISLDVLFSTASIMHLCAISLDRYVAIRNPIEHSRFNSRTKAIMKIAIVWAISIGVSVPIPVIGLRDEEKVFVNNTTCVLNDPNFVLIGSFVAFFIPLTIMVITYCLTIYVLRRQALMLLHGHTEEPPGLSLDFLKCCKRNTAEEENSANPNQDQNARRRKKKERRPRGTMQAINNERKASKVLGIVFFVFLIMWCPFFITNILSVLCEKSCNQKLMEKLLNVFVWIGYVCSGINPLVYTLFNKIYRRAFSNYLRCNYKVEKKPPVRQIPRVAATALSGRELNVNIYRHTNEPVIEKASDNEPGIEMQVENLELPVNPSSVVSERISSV

[2] = biological target: 5-hydroxytryptamine receptor 2A (Homo sapiens, UniProt P28223); test: Displacement of [3H]ketanserin from human 5HT2A expressed in CHOKI cells; assay type: cell-based
[3] = biological target: T2, 5-hydroxytryptamine receptor 1A (Homo sapiens, UniProt P08908); test: Displacement of [3H]8-OH-DPAT from human 5HT1A expressed in CHOKI cells; assay type: cell-based
T2 sequence (P08908 whole entry): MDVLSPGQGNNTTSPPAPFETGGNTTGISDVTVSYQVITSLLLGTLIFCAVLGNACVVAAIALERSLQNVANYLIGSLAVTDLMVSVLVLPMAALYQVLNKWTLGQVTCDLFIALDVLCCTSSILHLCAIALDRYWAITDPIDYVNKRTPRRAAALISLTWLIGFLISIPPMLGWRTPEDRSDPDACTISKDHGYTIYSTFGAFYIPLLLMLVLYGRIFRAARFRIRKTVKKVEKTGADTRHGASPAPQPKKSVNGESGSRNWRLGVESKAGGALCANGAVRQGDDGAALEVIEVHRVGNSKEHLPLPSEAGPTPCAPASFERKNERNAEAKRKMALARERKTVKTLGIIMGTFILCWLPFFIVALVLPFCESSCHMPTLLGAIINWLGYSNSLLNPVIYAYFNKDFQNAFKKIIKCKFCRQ

D(4) dopamine receptor = biological target: T3, D(4) dopamine receptor (Homo sapiens, UniProt P21917); test: Displacement of [3H]spiperone from human dopamine D4 receptor expressed in CHOKI cells; assay type: cell-based
T3 sequence (P21917 whole entry): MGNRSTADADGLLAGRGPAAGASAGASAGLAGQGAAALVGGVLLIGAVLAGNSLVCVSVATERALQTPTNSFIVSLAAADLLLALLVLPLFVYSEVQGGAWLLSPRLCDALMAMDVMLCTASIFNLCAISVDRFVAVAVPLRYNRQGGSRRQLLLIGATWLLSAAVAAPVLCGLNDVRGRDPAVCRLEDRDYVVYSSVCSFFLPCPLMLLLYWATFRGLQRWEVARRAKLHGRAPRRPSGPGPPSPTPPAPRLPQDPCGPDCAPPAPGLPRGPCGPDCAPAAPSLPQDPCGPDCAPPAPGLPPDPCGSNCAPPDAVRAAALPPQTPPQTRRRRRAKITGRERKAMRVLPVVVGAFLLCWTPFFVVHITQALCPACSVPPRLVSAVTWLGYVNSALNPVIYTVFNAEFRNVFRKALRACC

[4] = biological target: T4, 5-hydroxytryptamine receptor 6 (Homo sapiens, UniProt P50406); test: Displacement of [3H]LSD from human 5HT6 receptor expressed in HEK293 cells; assay type: cell-based
Target sequence in this assay (P50406 whole entry): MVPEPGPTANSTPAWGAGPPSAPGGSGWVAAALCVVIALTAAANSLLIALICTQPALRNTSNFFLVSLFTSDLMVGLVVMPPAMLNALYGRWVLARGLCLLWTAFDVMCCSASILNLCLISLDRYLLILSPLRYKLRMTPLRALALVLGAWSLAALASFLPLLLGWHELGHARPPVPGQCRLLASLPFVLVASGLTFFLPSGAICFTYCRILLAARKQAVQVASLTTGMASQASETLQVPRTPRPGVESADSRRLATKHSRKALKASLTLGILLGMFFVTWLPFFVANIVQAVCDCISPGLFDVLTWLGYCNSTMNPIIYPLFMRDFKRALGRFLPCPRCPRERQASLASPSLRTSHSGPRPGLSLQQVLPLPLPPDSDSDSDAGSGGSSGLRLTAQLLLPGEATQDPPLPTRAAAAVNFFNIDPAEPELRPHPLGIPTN

D(2) dopamine receptor = D(2) dopamine receptor (Homo sapiens, UniProt P14416); test: Displacement of [3H]spiperone from human dopamine D2 expressed in CHOKI cells; assay type: cell-based
[5] = biological target: 5-hydroxytryptamine receptor 7 (Homo sapiens, UniProt P34969); test: Displacement of [3H]LSD from human 5HT7 expressed in CHOKI cells; assay type: cell-based
D(3) dopamine receptor = D(3) dopamine receptor (Homo sapiens, UniProt P35462); test: Displacement of [3H]spiperone from human dopamine D3 receptor expressed in CHOKI cells; assay type: cell-based
Homo sapiens [6] = species: Homo sapiens; test: Selectivity ratio of IC50 for human dopamine D4 to IC50 for human 5HT2C
Homo sapiens [7] = species: Homo sapiens; test: Selectivity ratio of IC50 for human dopamine D3 to IC50 for human 5HT6 receptor
[8] = biological target: T4, 5-hydroxytryptamine receptor 6; test: Antagonist activity at human 5HT6 expressed in human HeLa cells assessed as inhibition of 5-HT-stimulated cAMP accumulation
Target sequence in this assay (P50406 whole entry, looked up): as the sequence (P50406 whole entry) above

Homo sapiens [9] = species: Homo sapiens; test: Selectivity ratio of IC50 for human 5HT1A to IC50 for human 5HT2C
Homo sapiens [10] = species: Homo sapiens; test: Selectivity ratio of IC50 for human dopamine D3 to IC50 for human 5HT2C
Homo sapiens [11] = species: Homo sapiens; test: Selectivity ratio of IC50 for human 5HT7 to IC50 for human 5HT2C
[12] = biological target: T4, 5-hydroxytryptamine receptor 6; test: Antagonist activity at human 5HT6 receptor expressed in human HeLa cells assessed as inhibition of 5-HT-stimulated cAMP production; assay type: functional, cell-based
Target sequence in this assay (P50406 whole entry): as above

Homo sapiens [13] = species: Homo sapiens; test: Selectivity ratio of IC50 for human 5HT7 to IC50 for human 5HT6 receptor
Homo sapiens [14] = species: Homo sapiens; test: Selectivity ratio of IC50 for human dopamine D2 to IC50 for human 5HT6 receptor
[15] = biological target: Serotonin 2 receptors; 5-HT2a & 5-HT2c (Homo sapiens) (UniProt P28223+P28335); test: Selectivity ratio of IC50 for human 5HT2A to IC50 for human 5HT2C
Homo sapiens [16] = species: Homo sapiens; test: Selectivity ratio of IC50 for human 5HT2A to IC50 for human 5HT6 receptor
Homo sapiens [17] = species: Homo sapiens; test: Selectivity ratio of IC50 for human dopamine D2 to IC50 for human 5HT2C
Homo sapiens [18] = species: Homo sapiens; test: Selectivity ratio of IC50 for human dopamine D4 to IC50 for human 5HT6 receptor
[19] = biological target: T5, 5-hydroxytryptamine receptor 2C (Homo sapiens) (UniProt P28335); test: Antagonist activity at human 5HT2C expressed in CHO cells assessed as inhibition of 5-HT-stimulated [35S]GTPgamma binding; assay type: functional, cell-based
T5 sequence (whole entry): T1 sequence (P28335 whole entry)

Homo sapiens [20] = species: Homo sapiens; test: Selectivity ratio of IC50 for human 5HT1A to IC50 for human 5HT6 receptor

5-hydroxytryptamine receptor 2A, sequence (P28223 whole entry): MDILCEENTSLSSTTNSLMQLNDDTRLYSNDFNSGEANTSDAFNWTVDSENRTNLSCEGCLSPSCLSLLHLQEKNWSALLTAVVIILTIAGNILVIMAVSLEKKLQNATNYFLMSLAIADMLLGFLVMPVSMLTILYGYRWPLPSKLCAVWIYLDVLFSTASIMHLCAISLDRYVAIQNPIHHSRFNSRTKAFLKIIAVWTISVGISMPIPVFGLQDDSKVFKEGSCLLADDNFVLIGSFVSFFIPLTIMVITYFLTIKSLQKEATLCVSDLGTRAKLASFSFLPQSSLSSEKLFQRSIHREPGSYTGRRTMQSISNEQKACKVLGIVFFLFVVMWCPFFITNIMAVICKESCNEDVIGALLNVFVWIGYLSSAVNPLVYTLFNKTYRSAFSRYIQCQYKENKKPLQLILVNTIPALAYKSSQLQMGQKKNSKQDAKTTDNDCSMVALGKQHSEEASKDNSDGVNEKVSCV
D(3) dopamine receptor, sequence (P35462 whole entry): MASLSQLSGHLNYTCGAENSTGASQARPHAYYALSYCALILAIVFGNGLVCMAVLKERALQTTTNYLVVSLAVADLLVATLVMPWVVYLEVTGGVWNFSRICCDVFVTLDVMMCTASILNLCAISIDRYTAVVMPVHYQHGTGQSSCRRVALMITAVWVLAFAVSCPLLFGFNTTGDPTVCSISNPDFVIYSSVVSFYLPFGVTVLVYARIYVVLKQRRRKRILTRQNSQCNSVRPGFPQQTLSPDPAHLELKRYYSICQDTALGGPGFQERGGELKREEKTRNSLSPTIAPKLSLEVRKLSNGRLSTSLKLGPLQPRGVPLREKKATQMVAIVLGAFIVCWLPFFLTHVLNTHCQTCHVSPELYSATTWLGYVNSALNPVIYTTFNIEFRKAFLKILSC
D(2) dopamine receptor, sequence (P14416 whole entry): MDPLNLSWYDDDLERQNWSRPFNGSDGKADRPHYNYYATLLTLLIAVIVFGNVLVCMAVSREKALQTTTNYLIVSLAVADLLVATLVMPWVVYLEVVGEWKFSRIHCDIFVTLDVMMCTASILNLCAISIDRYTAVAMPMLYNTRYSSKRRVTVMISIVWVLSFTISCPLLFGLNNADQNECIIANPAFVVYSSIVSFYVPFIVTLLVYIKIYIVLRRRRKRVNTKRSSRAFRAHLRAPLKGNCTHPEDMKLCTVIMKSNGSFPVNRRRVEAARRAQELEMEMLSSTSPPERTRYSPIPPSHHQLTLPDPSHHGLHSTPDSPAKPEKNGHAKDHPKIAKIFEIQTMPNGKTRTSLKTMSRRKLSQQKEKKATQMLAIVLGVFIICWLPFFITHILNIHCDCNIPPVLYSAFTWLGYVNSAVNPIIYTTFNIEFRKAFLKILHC
5-hydroxytryptamine receptor 7, sequence (P34969 whole entry): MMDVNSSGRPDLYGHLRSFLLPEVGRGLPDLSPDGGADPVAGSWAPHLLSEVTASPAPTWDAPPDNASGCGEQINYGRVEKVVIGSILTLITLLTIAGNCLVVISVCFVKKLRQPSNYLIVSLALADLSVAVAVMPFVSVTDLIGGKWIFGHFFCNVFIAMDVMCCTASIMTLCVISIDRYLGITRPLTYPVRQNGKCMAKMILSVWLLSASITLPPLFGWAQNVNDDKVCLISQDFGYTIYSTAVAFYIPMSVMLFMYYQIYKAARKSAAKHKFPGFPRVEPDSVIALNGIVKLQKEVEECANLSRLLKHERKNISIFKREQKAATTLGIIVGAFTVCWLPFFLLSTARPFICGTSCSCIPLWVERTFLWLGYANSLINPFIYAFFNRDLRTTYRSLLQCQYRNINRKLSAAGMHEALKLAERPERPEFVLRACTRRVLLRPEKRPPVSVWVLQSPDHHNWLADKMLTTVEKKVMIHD
Serotonin 2 receptors; 5-HT2a & 5-HT2c (Homo sapiens), sequence (P28223 whole entry, looked up, one chain of several): as the sequence (P28223 whole entry) above

Row | SMILES | IC50 [1] | IC50 [2] | IC50 [3] | IC50 (D(4) dopamine receptor) | IC50 [4] | IC50 (D(2) dopamine receptor) | IC50 [5] | IC50 (D(3) dopamine receptor) | also measured
1 | CN1CCN(c2cccc(N(CC3CC3)S(=O)(=O)c3ccc4ccccc4c3)c2)CC1 | 0.006 µM | 0.088 µM | 0.672 µM | > 10 µM | 0.006 µM | > 10 µM | 3.04 µM | 1.43 µM | 
2 | CCN(c1cccc(N2CCN(C)CC2)c1)S(=O)(=O)c1ccc2ccccc2c1 | 0.016 µM | 0.218 µM | 0.485 µM | > 10 µM | 0.003 µM | > 10 µM | 2.06 µM | 1.17 µM | 
3 | CC(C)N(c1ccc(Oc2cccnc2)nc1)S(=O)(=O)c1ccc2ccccc2c1 | > 10 µM |  |  |  | 0.422 µM |  |  |  | 
4 | Cc1ccc(S(=O)(=O)N(c2cccc(N3CCN(C)CC3)c2)C(C)C)cc1 | 0.106 µM |  |  |  |  |  |  |  | 
5 | CC(C)N(c1ccccc1N1CCN(C)CC1)S(=O)(=O)c1ccc2ccccc2c1 | 4.64 µM |  |  |  | 2.19 µM |  |  |  | 
6 | CC(C)N(c1cccc(N2CCN(C)CC2)c1)S(=O)(=O)c1ccccc1 | 0.021 µM | 0.172 µM | 3.4 µM | > 10 µM | 0.644 µM | > 10 µM | 1.01 µM | 2.89 µM | 
7 | CC(C)N(Cc1ccccc1)c1cccc(N2CCN(C)CC2)c1 | > 10 µM |  |  |  |  |  |  |  | 
8 | CC(C)N(C(=O)c1ccc(Cl)cc1)c1cccc(N2CCN(C)CC2)c1 | 7.7 µM |  |  |  |  |  |  |  | 
9 | CC(C)N(C(=O)c1ccccc1)c1cccc(N2CCN(C)CC2)c1 | 4.16 µM |  |  |  |  |  |  |  | 
10 | CCC(CC)N(c1cccc(N2CCN(C)CC2)c1)S(=O)(=O)c1ccc2ccccc2c1 | 0.159 µM |  |  |  |  |  |  |  | 
11 | CC(C)N(c1cccc(N2CCN(C)CC2)c1)S(=O)(=O)c1ccc2ccccc2c1 | 0.004 µM | 0.118 µM | > 1 µM | > 1 µM | 0.003 µM | > 10 µM |  | 0.248 µM | Ratio IC50 (Homo sapiens [6]): > 25; Ratio IC50 (Homo sapiens [7]): > 25; inhibition [8]: Active; Ratio IC50 (Homo sapiens [9]): > 25; Ratio IC50 (Homo sapiens [10]): > 25; Ratio IC50 (Homo sapiens [11]): > 25; inhibition [12]: Active; Ratio IC50 (Homo sapiens [13]): > 25; Ratio IC50 (Homo sapiens [14]): > 25; Ratio IC50 [15]: > 25; Ratio IC50 (Homo sapiens [16]): > 25; Ratio IC50 (Homo sapiens [17]): > 25; Ratio IC50 (Homo sapiens [18]): > 25; inhibition [19]: Dose-dependent effect; Ratio IC50 (Homo sapiens [20]): > 25
12 | CC(C)N(c1cccc(N2CCN(C)CC2)c1)S(=O)(=O)c1cccc2ccccc12 | 0.1 µM | 0.122 µM | 0.298 µM | > 10 µM | 0.016 µM | > 10 µM | 2.87 µM | 1.2 µM | 
13 | CCC(C)N(c1cccc(N2CCN(C)CC2)c1)S(=O)(=O)c1ccc2ccccc2c1 (centres undefined) | 0.168 µM |  |  |  |  |  |  |  | 
